According to US9732031B2 (priority 2013, dated 2017):

What was measured:
[1] = tested on: female CD-1 mice; experiment: Behavioral effects after intraperitoneal injection in female CD-1 mice; conditions: 2 h observation
Description: Individual body weights were used for dose volume calculations. Equal numbers of animals per group were tested each day. […] Animals were also observed 24 h post-dose. During the 2 h observation period, presence or absence of ataxic gait, paralysis, hyperactivity, hypoactivity, and catatonic episodes was recorded. Number, time of onset, duration, and intensity of convulsions were also recorded. Duration of each convulsion was graded as short (1 to 10 s), medium (11 to 30 s), or long (≧31 s). Intensity of convulsion was similarly graded as mild, moderate, or severe. Any animal showing a single episode of severe seizure longer than 1 min or experiencing greater than 40 consecutive episodes of severe convulsions over 1 h or less was euthanized.

[2] = in vivo; conditions: male, C57BL/6, mouse, po; for half-life: 75 mg/kg
Description: As appreciated, h-rac-bupropion is a 1:1 mixture of the two protonated enantiomers h-S-bupropion and h-R-bupropion. […] Animals were euthanized at preset time points (n=3 per time point). […] Quantitative data was analyzed in Excel (Microsoft Corp, Redmond, Wash.) using the PKSolver add-in (version 2, as described by Zhang et al. in Comput Methods Programs Biomed 99 (2010) 306-314) to determine PK parameters.

[3] = molecular target: T1, norepinephrine transporter (Rattus norvegicus, UniProt Q63380); experiment: Inhibition of norepinephrine uptake in rat hypothalamus synaptosomes; type: biochemical
T1 construct: tissue Cerep, France (assay provider); host or cells: rat hypothalamus synaptosomes
T1 sequence (Q63380 1-617): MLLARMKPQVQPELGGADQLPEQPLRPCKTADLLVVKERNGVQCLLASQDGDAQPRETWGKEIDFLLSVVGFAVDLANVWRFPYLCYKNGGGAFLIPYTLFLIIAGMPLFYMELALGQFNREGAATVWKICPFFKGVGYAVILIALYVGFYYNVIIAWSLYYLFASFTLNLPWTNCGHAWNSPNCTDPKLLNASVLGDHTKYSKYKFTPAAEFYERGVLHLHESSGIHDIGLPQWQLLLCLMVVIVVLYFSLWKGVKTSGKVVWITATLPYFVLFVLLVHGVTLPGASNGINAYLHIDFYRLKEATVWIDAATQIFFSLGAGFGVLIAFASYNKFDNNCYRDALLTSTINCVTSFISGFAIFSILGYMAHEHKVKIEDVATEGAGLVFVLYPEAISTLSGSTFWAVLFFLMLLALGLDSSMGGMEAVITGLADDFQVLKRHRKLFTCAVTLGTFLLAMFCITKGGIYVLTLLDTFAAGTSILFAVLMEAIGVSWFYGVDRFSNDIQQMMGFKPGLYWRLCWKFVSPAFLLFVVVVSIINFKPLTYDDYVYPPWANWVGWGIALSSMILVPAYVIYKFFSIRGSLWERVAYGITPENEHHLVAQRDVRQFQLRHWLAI
Description: The inhibitory activity of the (S)- and (R)-enantiomers of 1-(m-chlorophenyl)-2-(tert-butylamino)-(2-^2H)-propan-1-one was evaluated in the rat synaptosome assay (Cerep, France). Briefly, compounds were incubated for 20 min at 37° C. with rat hypothalamus synaptosomes in the presence of tritiated norepinephrine (NE). The uptake of radiolabeled NE by the synaptosomes was measured as a function of compound concentration. Inhibition of the transporter is observed when the amount of radioactivity in the synaptosomes is lower in the presence of test article. Analysis of the data was performed using the log(inhibitor) vs. response—variable slope (four parameters) model in GraphPad Prism 6.0 (GraphPad Software, Inc., La Jolla, Calif.), where response is % inhibition (% inhibition=100 [(NE uptake)control−(NE uptake)compound)]/(NE uptake)vehicle). Both inhibition curves were characterized by Hill slopes close to 1.

[4] = molecular target: T2, dopamine transporter (Rattus norvegicus, UniProt P23977); experiment: Inhibition of dopamine uptake in rat striatum synaptosomes; type: biochemical
T2 construct: tissue Cerep, France (assay provider); host or cells: rat striatum synaptosomes
T2 sequence (P23977 whole entry): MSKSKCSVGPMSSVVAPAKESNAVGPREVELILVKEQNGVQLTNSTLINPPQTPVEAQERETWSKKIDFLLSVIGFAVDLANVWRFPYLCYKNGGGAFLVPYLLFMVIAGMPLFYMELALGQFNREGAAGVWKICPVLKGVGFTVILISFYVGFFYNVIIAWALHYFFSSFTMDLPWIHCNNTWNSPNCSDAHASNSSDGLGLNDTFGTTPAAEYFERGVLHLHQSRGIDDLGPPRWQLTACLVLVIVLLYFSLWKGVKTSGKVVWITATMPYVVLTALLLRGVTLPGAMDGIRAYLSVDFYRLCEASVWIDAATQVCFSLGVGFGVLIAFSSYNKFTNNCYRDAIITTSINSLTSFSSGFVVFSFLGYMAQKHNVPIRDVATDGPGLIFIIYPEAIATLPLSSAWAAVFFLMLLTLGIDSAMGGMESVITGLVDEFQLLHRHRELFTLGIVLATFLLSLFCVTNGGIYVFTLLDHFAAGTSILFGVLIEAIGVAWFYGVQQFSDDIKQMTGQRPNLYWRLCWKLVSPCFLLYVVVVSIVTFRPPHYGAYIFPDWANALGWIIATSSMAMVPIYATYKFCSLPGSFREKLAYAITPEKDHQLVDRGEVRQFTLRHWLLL
Description: The inhibitory activity of the (S)- and (R)-enantiomers of 1-(m-chlorophenyl)-2-(tert-butylamino)-(2-^2H)-propan-1-one was evaluated in the rat synaptosome assay (Cerep, France). Briefly, each compound was incubated for 15 min at 37° C. with rat striatum synaptosomes in the presence of tritiated dopamine (DA). The uptake of radiolabeled DA by the synaptosomes was measured by scintillation counting as a function of compound concentration. Inhibition of the dopamine transporter is observed when the amount of radioactivity in the synaptosomes is lower in the presence of the test article than in its absence. Analysis of the data was performed using the log(inhibitor) vs. response—variable slope (four parameters) model in GraphPad Prism 6.0 (GraphPad Software, Inc., La Jolla, Calif.), where response is % inhibition (% inhibition=100 [(DA uptake)control−(DA uptake)compound)]/(DA uptake)vehicle). Both inhibition curves were characterized by Hill slopes close to 1.

[5] = molecular target: T3, human α7 nicotinic acetylcholine receptor (Homo sapiens, UniProt P36544); experiment: Inhibition of acetylcholine induced current in Xenopus Laevis oocytes overexpressing α7 nAChR; type: cell-based
T3 construct: expressed in transfected cells; host or cells: Xenopus laevis oocytes injected with cDNA
T3 sequence (P36544 23-502): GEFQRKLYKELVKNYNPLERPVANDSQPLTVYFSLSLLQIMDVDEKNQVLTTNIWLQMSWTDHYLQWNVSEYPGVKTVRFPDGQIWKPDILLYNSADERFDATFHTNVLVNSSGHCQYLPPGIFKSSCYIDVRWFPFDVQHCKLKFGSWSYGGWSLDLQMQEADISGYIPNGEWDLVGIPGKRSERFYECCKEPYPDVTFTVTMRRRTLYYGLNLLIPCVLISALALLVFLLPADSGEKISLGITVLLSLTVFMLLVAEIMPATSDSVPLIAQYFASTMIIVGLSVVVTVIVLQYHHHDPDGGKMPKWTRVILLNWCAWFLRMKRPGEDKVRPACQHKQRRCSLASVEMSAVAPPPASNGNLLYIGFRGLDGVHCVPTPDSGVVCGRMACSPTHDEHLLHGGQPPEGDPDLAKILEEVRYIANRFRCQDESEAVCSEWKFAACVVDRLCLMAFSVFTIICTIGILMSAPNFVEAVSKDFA
Description: Evaluation of the antagonist activity of the enantiomers of deuterated bupropion at α7 and α4β2 nicotinic acetylcholine receptors (nAChRs) was carried out in Xenopus Laevis oocytes prepared and injected with the corresponding cDNA using standard procedures. Receptor expression was examined two days after injection. For α4β2 nAChR, the two cDNAs were injected in equimolar amounts. All experiments were performed at 18° C. and cells were superfused with OR2 medium containing 82.5 mM sodium chloride, 2.5 mM potassium chloride, 5 mM HEPES, 1.8 mM calcium chloride, and 1 mM magnesium chloride at pH 7.4. A two-electrode voltage-clamp configuration was used to record currents evoked by acetylcholine addition. Data acquisition and analysis was performed in Matlab (Mathworks, Inc., Natick, Mass.). Statistical analysis was executed in Excel (Microsoft Corp, Redmond, Wash.) or Matlab (Mathwork, Inc., Natick, Mass.). All experiments were carried out using at least 3 oocytes.

Compound | mice per dose group experiencing ataxia ([1]; 100 mg/kg i.p.) [%] | mice per dose group experiencing catatonia ([1]; 100 mg/kg i.p.) [%] | mice per dose group experiencing convulsions ([1]; 100 mg/kg i.p.) [%] | mice per dose group experiencing hyperactivity ([1]; 100 mg/kg i.p.) [%] | mice per dose group experiencing hypoactivity ([1]; 100 mg/kg i.p.) [%] | mice per dose group experiencing ataxia ([1]; 125 mg/kg i.p.) [%] | mice per dose group experiencing catatonia ([1]; 125 mg/kg i.p.) [%] | mice per dose group experiencing convulsions ([1]; 125 mg/kg i.p.) [%] | mice per dose group experiencing hyperactivity ([1]; 125 mg/kg i.p.) [%] | mice per dose group experiencing hypoactivity ([1]; 125 mg/kg i.p.) [%] | mice per dose group experiencing ataxia ([1]; 150 mg/kg i.p.) [%] | mice per dose group experiencing catatonia ([1]; 150 mg/kg i.p.) [%] | mice per dose group experiencing convulsions ([1]; 150 mg/kg i.p.) [%] | mice per dose group experiencing hyperactivity ([1]; 150 mg/kg i.p.) [%] | mice per dose group experiencing hypoactivity ([1]; 150 mg/kg i.p.) [%] | AUC0-t of hR (h-R-bupropion) in plasma [2] [ng·h/mL] | AUC0-t of hRR (h-RR-hydroxybupropion) in plasma [2] [ng·h/mL] | AUC0-t of hS (h-S-bupropion) in plasma [2] [ng·h/mL] | AUC0-t of hSS (h-SS-hydroxybupropion) in plasma [2] [ng·h/mL] | half-life [2] [h] | other results
[2H][C@@](C)(NC(C)(C)C)C(=O)c1cccc(Cl)c1 [d-S-bupropion, (S)-1-(m-chlorophenyl)-2-(tert-butylamino)-(2-^2H)-propan-1-one] | 70 | 10 | 40 | 100 | 0 | 89 | 44 | 70 | 78 | 0 | 100 | 80 | 100 | 20 | 80 | 269 | 1129 | 469 | 395 | 0.9 | AUC0-t of dSS (d-SS-hydroxybupropion) in plasma [2]: 6545 ng·h/mL; AUC(0-t) [2]: 4760 ng·h/mL; IC50 [3]: 2.3 µM; IC50 [4]: 0.42 µM; IC50 [5]: 43.2 µM
[2H][C@](C)(NC(C)(C)C)C(=O)c1cccc(Cl)c1 [d-R-bupropion, (R)-1-(m-chlorophenyl)-2-(tert-butylamino)-(2-^2H)-propan-1-one] | 56 | 78 | 33 | 0 | 100 | 80 | 90 | 60 | 0 | 100 | 90 | 100 | 100 | 0 | 100 | 496 | 1685 | 340 | 169 | 1.7 | AUC0-t of dRR (d-RR-hydroxybupropion) in plasma [2]: 22059 ng·h/mL; IC50 [3]: 5.76 µM; IC50 [4]: 4.2 µM; IC50 [5]: 28.7 µM
CC(NC(C)(C)C)C(=O)c1cccc(Cl)c1 (racemic) [h-rac-bupropion, racemic-1-(m-chlorophenyl)-2-(tert-butylamino)-propan-1-one, reference compound] | – | – | – | – | – | – | – | – | – | – | – | – | – | – | – | 6798 | 18393 | 5265 | 6591 | – | –
